Data taken from patent US9321722B2, “Bis-indolic derivatives, their uses in particular as antibacterials” (UNIVERSITE JOSEPH FOURIER, priority 2011, dated 2016).
Converted amounts (≈) assume the structure as drawn.

What was measured:
Format in all cases: cell-based
[1] = tested on: MRC5 (human lung fibroblast); experiment: In vitro cytotoxicity; conditions: for inhibition at 10 µM: MRC5, 10^−5 M, read-out: % of cellular growth inhibition; for inhibition at 1 µM: MRC5, 10^−6 M, read-out: % of cellular growth inhibition (converted)
Description: (§1) In vitro cytotoxicity was assayed on three cell lines—KB (human mouth carcinoma), MCR5 (human lung fibroblast) and HCT116 (human colon tumor). Results are presented in table III as % of cellular growth inhibition in presence of 10^−5 M and 10^−6 M of the tested bis-indolic derivatives.

[2] = tested on: HCT116 (human colon tumor); experiment: In vitro cytotoxicity; conditions: for inhibition at 10 µM: HCT-116, HCT116, 10^−5 M, read-out: % of cellular growth inhibition; for inhibition at 1 µM: HCT-116, HCT116, 10^−6 M, read-out: % of cellular growth inhibition (converted)
Description: as §1

[3] = tested on: KB (human mouth carcinoma); experiment: In vitro cytotoxicity; conditions: KB; for inhibition at 10 µM: 10^−5 M, read-out: % of cellular growth inhibition; for inhibition at 1 µM: 10^−6 M, read-out: % of cellular growth inhibition (converted)
Description: as §1

[4] = tested on: Staphylococcus aureus 1199B (overexpression of the NorA efflux pump); experiment: Efflux pump inhibition assay with sub-inhibitory ciprofloxacin
Description: The efflux pump inhibition potential of the bis-indolic derivatives was tested using two steps. In a first step, the intrinsic antibacterial activity of the compounds was assayed against the following strains:
The following experimental protocol was used: indolic derivatives (initially solubilised in DMSO at 10 mg/mL) were dispensed in a 96-wells microplate by two fold serial dilutions in Muller-Hinton medium (MH, Bio Rad) using a Biomek 2000 (Beckman) handling robot. 100 μL of the bacterial inoculum (an overnight culture at 37° C. in 5 mL MH diluted 100-fold) was then added in each well. The total volume was 200 μL in each well and the final bacteria concentration 10^6 CFU/mL (CFU: colony forming unit). The highest final indolic derivative concentration was 128 mg/L. Growth was assayed with a microplate reader by monitoring absorption at 620 nm after 1, 2, 5, 7 and 24 h incubation at 37° C. In addition, the plates were read visually after 24 hours incubation. Cultures containing 5 μL DMSO were used as growth controls. In addition, two controls containing a sub-inhibitory or a inhibitory antibiotic concentration for the tested strain were performed. The antibiotics used were ampicillin (0.5 and 32 μg/mL) for E. coli, kanamycin (0.5 and 16 μg/mL) for S. aureus ATCC 25923, ciprofloxacin (4 and 64 mg/L) for S. aureus 1199B, ciprofloxacin (0.5 and 2 mg/L) for S. aureus K2378. All experiments were performed in duplicate.
Efflux pump inhibition assays were then performed against resistant Staphylococcus aureus strains SA 1199B and SA K2378 for bis-indolic derivatives. […] The minimal inhibitory concentration (MIC) of the bis-indolic compound allowing a complete inhibition of the bacterial growth in the presence of ciprofloxacin was determined.

E. faecalis ATCC 29212 = experiment: MIC microdilution (Table I-1); conditions: Enterococcus faecalis, ATCC29212, read after 18 hours, read-out: MIC
Description: (§2) The microdilution method recommended by the Clinical and Laboratory Standard Institute [M07-A8, Vol. 29, N^o 2] was used. The activity of indolic compounds was tested against 29 bacterial strains belonging to 17 different species and 12 different genera (Staphylococcus, Streptococcus, Enterococcus, Listeria, Bacillus, Haemophilus, Escherichia, Klebsiella, Enterobacter, Serratia, Pseudomonas, and Acinetobacter). Bacterial inocula were prepared in Mueller Hinton broth (MH2, bioMerieux, Marcy L'Etoile, France), supplemented with 10% sheep blood for fastidious species (i.e., Streptococcus pneumoniae and Haemophilus influenzae). They were dispensed in 96 well microtiter plates (5×10^5 CFU/ml of final inoculum). Indolic compounds were added to the wells as to obtain two-fold serial concentrations (0.50-128 mg/L of final concentrations). Plates were incubated at 37° C. in ambient air, or at 37° C. in 5% CO2 enriched atmosphere for fastidious species. […] Drug-free cultures served as growth controls. Cultures receiving gentamicin, ciprofloxacin or cefotaxime served as positive controls.

S. aureus ATCC 25923 = experiment: MIC microdilution (Table I-1); conditions: Staphylococcus aureus, ATCC25923, read after 18 hours
Description: as §2

[5] = tested on: Listeria innocua CIP 80.11; experiment: MIC microdilution (Table I-1); conditions: CIP80, read after 18 hours, read-out: MIC
Description: as §2

[6] = tested on: Acinetobacter baumanii ATCC 19606; experiment: MIC microdilution (Table I-1); conditions: Acinetobacter baumannii, ATCC19606, read after 18 hours
Description: as §2

[7] = tested on: Escherichia coli ATCC 25922; experiment: MIC microdilution (Table I-1); conditions: ATCC25922, read after 18 hours
Description: as §2

[8] = tested on: Haemophilus influenzae ATCC 49766; experiment: MIC microdilution (Table I-1); conditions: ATCC49766; Haemophilus influenzae ATCC 49766; read after 18 hours; read-out: MIC
Description: as §2

S. mitis CIP 103335 = experiment: MIC microdilution (Table I-1); conditions: Streptococcus mitis, CIP103335, read after 18 hours, read-out: MIC
Description: as §2

[9] = tested on: S. pyogenes (group A) CIP 104226; experiment: MIC microdilution (Table I-1); conditions: Streptococcus pyogenes, CIP104226, read after 18 hours, read-out: MIC
Description: as §2

[10] = tested on: S. agalactiae (group B) ATCC 12400; experiment: MIC microdilution (Table I-1); conditions: Streptococcus agalactiae, ATCC12400, read after 18 hours, read-out: MIC
Description: as §2

E. faecium CIP 54.32 = experiment: MIC microdilution (Table I-1); conditions: Enterococcus faecium, CIP54, read after 18 hours, read-out: MIC
Description: as §2

[11] = tested on: Klebsiella pneumoniae ATCC 35657; experiment: MIC microdilution (Table I-1); conditions: ATCC35657, read after 18 hours, read-out: MIC
Description: as §2

[12] = tested on: Serratia marcescens CIP 103551; experiment: MIC microdilution (Table I-1); conditions: CIP103551, read after 18 hours
Description: as §2

S. pneumoniae ATCC 49619 = experiment: MIC microdilution (Table I-1); conditions: Streptococcus pneumoniae, ATCC49619, read after 18 hours
Description: as §2

[13] = tested on: Pseudomonas aeruginosa CIP 5933; experiment: MIC microdilution (Table I-1); conditions: CIP5933, read after 18 hours
Description: as §2

[14] = tested on: Bacillus subtilis CIP 5262; experiment: MIC microdilution (Table I-1); conditions: CIP5262, read after 18 hours, read-out: MIC
Description: as §2

[15] = tested on: Enterobacter cloacae ATCC 13047; experiment: MIC microdilution (Table I-1); conditions: ATCC13047, read after 18 hours
Description: as §2

`CC(C)(C)OC(=O)NCC(NC(=O)C(=O)c1c[nH]c2ccccc12)c1c[nH]c2ccccc12` (centres unmarked) [Compound 2, tert-Butyl(2-(2-(1H-indol-3-yl)-2-oxoacetamido)-2-(1H-indol-3-yl)ethyl)carbamate] was tested, and the inhibition at 10 µM [1] was 100 ± 2%, the inhibition at 1 µM [1] was 10 ± 0.5% and the inhibition at 10 µM [2] was 96 ± 1%. It also gave an inhibition at 1 µM [2] of 53%, an inhibition at 10 µM [3] of 97 ± 1% and an inhibition at 1 µM [3] of 33%. The “CMI, mg/L (Ciprofloxacin concentration, mg/L)” value ([4]; in the presence of ciprofloxacin 2 mg/L (MIC/8)) was 2 (2) mg/L, the “CMI, mg/L (Ciprofloxacin concentration, mg/L)” value ([4]; in the presence of ciprofloxacin 4 mg/L (MIC/4)) was 0.5 (4) mg/L and the MIC (E. faecalis ATCC 29212) was greater than 128 µg/mL. It also gave an MIC (S. aureus ATCC 25923) greater than 128 µg/mL, an MIC [5] greater than 128 µg/mL and an MIC [6] greater than 128 µg/mL. The MIC [7] was greater than 128 µg/mL, the MIC [8] was greater than 128 µg/mL and the MIC (S. mitis CIP 103335) was greater than 128 µg/mL. For the same compound, the MIC [9] was greater than 128 µg/mL, the MIC [10] was greater than 128 µg/mL and the MIC (E. faecium CIP 54.32) was greater than 128 µg/mL. It also gave an MIC [11] greater than 128 µg/mL, an MIC [12] greater than 128 µg/mL and an MIC (S. pneumoniae ATCC 49619) greater than 128 µg/mL. The MIC [13] was greater than 128 µg/mL, the MIC [14] was greater than 128 µg/mL and the MIC [15] was greater than 128 µg/mL.
Work on `CC(C)(C)OC(=O)NCC(NC(=O)C(=O)c1c[nH]c2ccc(Br)cc12)c1c[nH]c2ccc(Br)cc12` (centres unmarked) [Compound 4, tert-Butyl(2-(5-bromo-1H-indol-3-yl)-2-(2-(5-bromo-1H-indol-3-yl)-2-oxoacetamido)ethyl) carbamate] yielded an inhibition at 10 µM [1] of 51 ± 9%, an inhibition at 1 µM [1] of 0% and an inhibition at 10 µM [2] of 58 ± 4%. For the same compound, the inhibition at 1 µM [2] was 0%, the inhibition at 10 µM [3] was 76 ± 5% and the inhibition at 1 µM [3] was 0%. For the same compound, the MIC (S. aureus ATCC 25923) was 1.6 µg/mL (≈ 2.65 µM), the MIC [6] was greater than 128 µg/mL and the MIC [7] was greater than 128 µg/mL. It also gave an MIC [11] greater than 128 µg/mL, an MIC [12] greater than 128 µg/mL and an MIC [13] greater than 128 µg/mL. It also gave an MIC [15] greater than 128 µg/mL.
For `CC(NC(=O)C(=O)c1c[nH]c2ccc(Br)cc12)c1c[nH]c2ccc(Br)cc12` (centres unmarked) [Compound 5, 2-(5-Bromo-1H-indol-3-yl)-N-(1-(5-bromo-1H-indol-3-yl)ethyl)-2-oxoacetamide], the inhibition at 10 µM [1] was 85 ± 2%, the inhibition at 1 µM [1] was 6% and the inhibition at 10 µM [2] was 80 ± 3%. The inhibition at 1 µM [2] was 10%, the inhibition at 10 µM [3] was 91 ± 3% and the inhibition at 1 µM [3] was 0%. It also gave an MIC (E. faecalis ATCC 29212) of 128 µg/mL (≈ 262 µM), an MIC (S. aureus ATCC 25923) of 1 µg/mL (≈ 2.04 µM) and an MIC [5] of 64 µg/mL (≈ 131 µM). It also gave an MIC [6] greater than 128 µg/mL, an MIC [7] greater than 128 µg/mL and an MIC [8] of 32 µg/mL (≈ 65.4 µM). It also gave an MIC (S. mitis CIP 103335) of 64 µg/mL (≈ 131 µM), an MIC [9] of 32 µg/mL (≈ 65.4 µM) and an MIC [10] of 64 µg/mL (≈ 131 µM). For the same compound, the MIC (E. faecium CIP 54.32) was 64 µg/mL (≈ 131 µM), the MIC [11] was greater than 128 µg/mL and the MIC [12] was greater than 128 µg/mL. For the same compound, the MIC (S. pneumoniae ATCC 49619) was 32 µg/mL (≈ 65.4 µM), the MIC [13] was greater than 128 µg/mL and the MIC [14] was 64 µg/mL (≈ 131 µM). The MIC [15] was greater than 128 µg/mL.
